The text below walks through data of paper PMC3898987 (Bioorganic & Medicinal Chemistry, 2013).

SMILES strings stand for the structures. Residue numbers refer to the chain shown, from its start.

For assay [1], the target named is T1, 5-HT3AB receptor, 5-HT3B subunit E170A (Homo sapiens, UniProt P46098).
T1 construct: variant as stated: E170A
T1 sequence (P46098 24-478): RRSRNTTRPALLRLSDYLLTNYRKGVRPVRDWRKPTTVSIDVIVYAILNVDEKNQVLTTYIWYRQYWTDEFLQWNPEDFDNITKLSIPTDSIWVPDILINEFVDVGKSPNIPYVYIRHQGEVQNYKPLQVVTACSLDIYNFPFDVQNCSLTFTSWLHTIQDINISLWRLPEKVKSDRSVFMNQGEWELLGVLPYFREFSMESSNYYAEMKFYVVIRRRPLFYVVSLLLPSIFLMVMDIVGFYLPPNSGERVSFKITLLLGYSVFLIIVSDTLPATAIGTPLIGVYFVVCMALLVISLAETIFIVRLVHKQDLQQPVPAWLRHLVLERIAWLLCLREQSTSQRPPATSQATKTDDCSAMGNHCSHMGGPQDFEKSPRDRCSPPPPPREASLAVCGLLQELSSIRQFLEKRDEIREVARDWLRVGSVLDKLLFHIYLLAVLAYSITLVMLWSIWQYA
T1 sequence (O95264 22-441 partner): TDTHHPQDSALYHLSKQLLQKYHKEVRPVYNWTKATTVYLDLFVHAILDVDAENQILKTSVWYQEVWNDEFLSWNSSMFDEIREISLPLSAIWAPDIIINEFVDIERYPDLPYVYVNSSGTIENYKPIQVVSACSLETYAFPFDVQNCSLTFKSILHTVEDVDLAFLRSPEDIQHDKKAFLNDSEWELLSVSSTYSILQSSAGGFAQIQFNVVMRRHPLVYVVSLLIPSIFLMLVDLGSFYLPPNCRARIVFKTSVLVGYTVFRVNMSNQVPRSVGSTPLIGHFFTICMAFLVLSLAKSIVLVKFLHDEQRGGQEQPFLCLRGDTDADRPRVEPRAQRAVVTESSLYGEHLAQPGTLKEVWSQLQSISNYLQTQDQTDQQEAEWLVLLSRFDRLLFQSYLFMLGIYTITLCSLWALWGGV
Kind of assay: biochemical. The conditions noted are these: [3H]-palonosetron saturation, 5-HT3AB with 5-HT3B E170A, 4 °C, 24 h. Format: binding.
Experimental: (§1) Human embryonic kidney (HEK) 293 cells were cultured on 90 mm tissue culture plates at 37 °C and 7% CO2 in a humidified atmosphere. They were grown in DMEM:F12 (Dulbecco’s Modified Eagle’s Medium/Nutrient Mix F12 (1:1)) with GlutaMAX I™ containing 10% fetal calf serum and passaged when confluent. For radioligand binding studies, cells in 90 mm dishes were transfected at 60–70% confluency using polyethyleneimine and incubated for 3–4 days before use. For FlexStation assays, transfected cells were plated on 96-well plates and incubated 1–2 days before assay. […]
(§2) Eight-point binding assays were performed to produce saturation binding curves. […] Radioactive counts were measured using a Beckman LS6000SC liquid scintillation counter (Fullerton, California, USA).
(§3) Data were analyzed by iterative curve fitting using GraphPad Prism v5 (San Diego, CA) according to the following equation: B=Bmax[L]^n/kdn+[L]^n where B is the amount of bound radioligand, Bmax is the maximum specific binding at equilibrium, [L] is the concentration of radioligand, Kd is the equilibrium dissociation constant of the radioligand, and n is the Hill coefficient.

Assay [2] has as its target T2, 5-HT3AB receptor, 5-HT3B subunit I183A (Homo sapiens, UniProt O95264+P46098, I176A).
T2 sequence (P46098 24-478): T1 sequence (P46098 24-478)
T2 sequence (O95264 22-441 I176A): T1 sequence (O95264 22-441 partner) with I155A
Nature of the assay: cell-based.
Experimental: For FlexStation assays, transfected cells were plated on 96-well plates and incubated 1–2 days before assay.
Fluorometric studies were undertaken using a FlexStation® (Molecular Devices, Sunnyvale, CA, USA) as previously described.[11]
Fluorescence was measured every 2 s for 200 s. […] Concentration–response and inhibition curves were obtained for each mutant, and the fluorescence values were normalized to the maximal response.

A further assay concerns the target T3, 5-HT3A receptor Y73F (Homo sapiens, UniProt P46098, Y68F).
T3 sequence (P46098 24-478 Y68F): T1 sequence (P46098 24-478) with Y45F
Nature of the assay: radioligand saturation binding, transfected HEK293 membranes. Conditions: [3H]-palonosetron saturation, 5-HT3A Y73F, 4 °C, 24 h.

A further assay deals with T4, 5-HT3A receptor W90C (Homo sapiens, UniProt P46098, W85C).
T4 sequence (P46098 24-478 W85C): T1 sequence (P46098 24-478) with W62C
The assay is described as above. Conditions: [3H]-palonosetron saturation, 5-HT3A W90C, 4 °C, 24 h, NB = no binding.

A further assay has as its target T5, 5-HT3A receptor S163T (Homo sapiens, UniProt P46098, S158T).
T5 sequence (P46098 24-478 S158T): T1 sequence (P46098 24-478) with S135T
The description is as above. The conditions noted are these: [3H]-palonosetron saturation, 5-HT3A S163T, 4 °C, 24 h.

Experimental for 5-HT3A receptor S163T: as §1, §2, §3
Experimental for 5-HT3A receptor W90C: as §1, §2, §3
Experimental for 5-HT3A receptor Y73F: as §1, §2, §3

One may read the Kd as the free concentration of one partner at which half of the binding sites on the other are occupied at equilibrium, for simple one-to-one binding. The IC50 is the concentration needed to halve the response being measured. Read a low IC50 as higher potency. Consider `O=C1c2cccc3c2[C@H](CCC3)CN1[C@@H]1CN2CCC1CC2` [Palonosetron], for which the Kd in assay [1] is 0.21 ± 0.03 nM; at 5-HT3A receptor Y73F, 0.25 ± 0.04 nM; on 5-HT3A receptor W90C, more than 2 nM; at 5-HT3A receptor W90C (listed as [^3H]palonosetron), “no saturable, specific binding”; at 5-HT3A receptor S163T, 0.22 ± 0.05 nM. Further, half-maximal inhibition in assay [2] (IC50) was put at 0.34 ± 0.08 nM.
